Earlier results in patent publication US10967066B2, “Stapled acid-sensitive endosome disrupting alginates” (University of Pittsburgh—Of the Commonwealth System of …, priority 2015, dated 2021).

Assays:
[1] = test system: tumors; conditions: mice
[2] = test system: cancer cells

Compound: CC(C)c1cc(C(=O)[O-])c(O)c(C(C)C)c1.CC(C)c1cc(C(=O)[O-])c(O)c(C(C)C)c1.[Cu+2] [Cu(II)DIPS, copper(II) (3,5-diisopropylsalicylate)2]
- clearing tumors [1]: effective in clearing tumors in mice
- hydrogen peroxide accumulation and cell death in cancer cells [2]: induce hydrogen peroxide accumulation due to the conversion of radical oxygen into hydrogen peroxide, with this accumulation of hydrogen peroxide leading to cell death in cancer cells
